In patent publication US11931325B2, “Hair-growth promoting composition and usage thereof” (Eaderm Co., Ltd., priority 2015, dated 2024):

Tests used:
[1] = system: ob/ob mouse; assay: Hair growth experiment using an iNOS inhibitor in shaved/depilated ob/ob mice; type: in vivo; conditions: for time until deposition of melanin pigments in the skin was observed: hair removed at 8 weeks of age, intraperitoneal in saline (10, 20 and 30 mg/kg for 1400W, L-NIL, BYK191023), time from start of administration; for area of hair growth compared to 1400W: 4 weeks
Protocol: For this experiment, the ob/ob mouse purchased from Sankyo Labo Service Corporation was used. The whole back of the mouse was shaved using an electric shaver under anesthesia (mixed anesthesia of ketamine hydrochloride and xylazine hydrochloride) at 8 weeks of age, and the hair was removed with a commercially available depilatory cream (Epilat hair removal cream from Kracie Holdings, Ltd.). Administration or application of each iNOS inhibitor was carried out on the day the experiment began. The usage and dosage of the iNOS inhibitors used are as described below. Selective iNOS inhibitors, 1400W, L-NIL and BYK191023, were purchased from Tocris Bioscience and dissolved in saline solution, and each of them was administered intraperitoneally at 10 mg/kg, 20 mg/kg and 30 mg/kg. For the control group, saline solution was administered intraperitoneally. Consecutive administration for five days from Monday to Friday was continued for one month. A similarly selective iNOS inhibitor, aminoguanidine, was purchased from Tokyo Chemical Industry Co., Ltd. and dissolved in saline solution to 10% (w/v), and 100 μl was applied to the epilation area. For the control group, saline solution was used. Consecutive application for five days from Monday to Friday was continued for one month. The back was photographed once a week and observation was continued until 12 weeks of age. Every seven days from the start of the administration, the state of hair growth in the shaved area was rated using the hair growth score standard below.
(Hair Growth Score Standard)
1=hair growth in less than 10% of the shaved area
2=hair growth in equal to or more than 10% and less than 20% of the shaved area
3=hair growth in equal to or more than 20% and less than 30% of the shaved area
4=hair growth in equal to or more than 30% and less than 40% of the shaved area
5=hair growth in equal to or more than 40% and less than 50% of the shaved area
6=hair growth in equal to or more than 50% and less than 60% of the shaved area
7=hair growth in equal to or more than 60% and less than 70% of the shaved area
8=hair growth in equal to or more than 70% and less than 80% of the shaved area
9=hair growth in equal to or more than 80% and less than 90% of the shaved area
10=hair growth in equal to or more than 90% of the shaved area

[2] = system: C3H mouse and C57BL/6 mouse; assay: Hair growth experiment using wild-type mice (application of aminoguanidine); type: in vivo; conditions: C3H and C57BL/6 mice, 10% (w/v) in saline, 100 μl applied to the epilation area, five days a week for three weeks
Protocol: In this experiment, the same method as Example 2 was used, except that the C3H mouse and C57BL/6 mouse were used. The whole back of the mouse was shaved using an electric shaver under anesthesia (mixed anesthesia of ketamine hydrochloride and xylazine hydrochloride) at 8 weeks of age, and the hair was removed with a commercially available depilatory cream (Epilat hair removal cream from Kracie Holdings, Ltd.). Application of aminoguanidine was carried out on the day the experiment began. The usage and dosage of the aminoguanidine used are as described below. Aminoguanidine was purchased from Tokyo Chemical Industry Co., Ltd. and dissolved to 10% (w/v) in saline solution, and 100 μl was applied to the epilation area. For the control group, saline solution was used. Consecutive application for five days from Monday to Friday was continued for three weeks, and the back was photographed daily.

[3] = 10% (w/v) in saline, 100 μl applied to the epilation area, time from start of application

CC(=N)NCc1cccc(CN)c1 [1400W]
time until widespread hair growth was confirmed ([1]; intraperitoneal administration, five days a week for one month): four

N=C(N)NN [aminoguanidine]
shortening of the telogen phase compared to the control group [2]: two to three | time until hair growth was confirmed [1, 3]: two | time until hair returned to almost the same as the original condition [1, 3]: four | time until widespread hair growth was confirmed [1, 3]: three

CC(=N)NCCCC[C@H](N)C(=O)O [L-NIL]
time until deposition of melanin pigments in the skin was observed ([1]; five days a week for one month): three | area of hair growth compared to 1400W ([1]; intraperitoneal administration): less

COc1ccnc(CCc2nc3ncccc3[nH]2)c1 [BYK191023]
time until deposition of melanin pigments in the skin was observed ([1]; five days a week for one month): three | area of hair growth compared to 1400W ([1]; intraperitoneal administration): less
